Source: PubChem BioAssay AID2060889 (Molecular Pharmacology Branch, DTP, NCI, 2025)
One block for each compound: values may come before it.

Test system: LG0567-F671-PDC complex spheroids viability
Experiment: Anticancer human tumor LG0567-F671-PDC patient-derived lung adenocarcinoma cell line growth inhibition [RAS]
Details: for IC50: curve of first compound; for viability, T/C: stronger effect = lower value
Procedure, shortened: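 Tumour cells grown as complex spheroids with HUVEC endothelial cells and mesenchymal stem cells, treated with RAS pathway inhibitor combinations. Each agent spans half-log steps from near clinical Cmax, or 10 microM where Cmax is unknown.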

[1] = second compound 0.00316 µM, first compound 0.000949 µM
[2] = second compound 0.00316 µM, first compound 0.003 µM
[3] = second compound 0.00316 µM, first compound 0.00949 µM
[4] = second compound 0.00316 µM, first compound 0.03 µM
[5] = second compound 0.00316 µM, first compound 0.0949 µM
[6] = second compound 0.00316 µM, first compound 0.3 µM
[7] = second compound 0.01 µM, first compound 0.000949 µM
[8] = second compound 0.01 µM, first compound 0.003 µM
[9] = second compound 0.01 µM, first compound 0.00949 µM
[10] = second compound 0.01 µM, first compound 0.03 µM
[11] = second compound 0.01 µM, first compound 0.0949 µM
[12] = second compound 0.01 µM, first compound 0.3 µM
[13] = second compound 0.0316 µM, first compound 0.000949 µM
[14] = second compound 0.0316 µM, first compound 0.003 µM
[15] = second compound 0.0316 µM, first compound 0.00949 µM
[16] = second compound 0.0316 µM, first compound 0.03 µM
[17] = second compound 0.0316 µM, first compound 0.0949 µM
[18] = second compound 0.0316 µM, first compound 0.3 µM
[19] = second compound 0.1 µM, first compound 0.000949 µM
[20] = second compound 0.1 µM, first compound 0.003 µM
[21] = second compound 0.1 µM, first compound 0.00949 µM
[22] = second compound 0.1 µM, first compound 0.03 µM
[23] = second compound 0.1 µM, first compound 0.0949 µM
[24] = second compound 0.1 µM, first compound 0.3 µM
[25] = second compound 0.316 µM, first compound 0.000949 µM
[26] = second compound 0.316 µM, first compound 0.003 µM
[27] = second compound 0.316 µM, first compound 0.00949 µM
[28] = second compound 0.316 µM, first compound 0.03 µM
[29] = second compound 0.316 µM, first compound 0.0949 µM
[30] = second compound 0.316 µM, first compound 0.3 µM
[31] = second compound 1 µM, first compound 0.000949 µM
[32] = second compound 1 µM, first compound 0.003 µM
[33] = second compound 1 µM, first compound 0.00949 µM
[34] = second compound 1 µM, first compound 0.03 µM
[35] = second compound 1 µM, first compound 0.0949 µM
[36] = second compound 1 µM, first compound 0.3 µM
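Further: spheroids exposed to compound for seven days before readout.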
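Wherever IC50 is given: luminescence signal used as a proxy for viable cells.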

IC50 (second compound 0.000949 µM): < 31.6 nM
IC50 (second compound 0.003 µM): < 31.6 nM
IC50 (second compound 0.00949 µM): < 31.6 nM
IC50 (second compound 0.03 µM): < 31.6 nM
IC50 (second compound 0.0949 µM): < 31.6 nM
IC50 (second compound 0.3 µM): < 31.6 nM
Compound: CC(Nc1ccc2c(c1)OCCn1cc(N3C(=O)OCC3C(F)F)nc1-2)C(N)=O (stereo unspecified) + CCn1c(-c2cc(N3CCN(C)CC3)cnc2C(C)OC)c2c3cc(ccc31)-c1csc(n1)CC(NC(=O)C1CC1C)C(=O)N1CCCC(N1)C(=O)OCC(C)(C)C2
viability, T/C (second compound 0.000949 µM, first compound 0.0316 µM): 19.3%
viability, T/C (second compound 0.000949 µM, first compound 0.1 µM): 12.9%
viability, T/C (second compound 0.000949 µM, first compound 0.316 µM): 10.5%
viability, T/C (second compound 0.000949 µM, first compound 1 µM): 7.84%
viability, T/C (second compound 0.000949 µM, first compound 3.16 µM): 7.19%
viability, T/C (second compound 0.000949 µM, first compound 10 µM): 7.14%
viability, T/C (second compound 0.003 µM, first compound 0.0316 µM): 7.68%
viability, T/C (second compound 0.003 µM, first compound 0.1 µM): 7.52%
viability, T/C (second compound 0.003 µM, first compound 0.316 µM): 5.35%
viability, T/C (second compound 0.003 µM, first compound 1 µM): 3.88%
viability, T/C (second compound 0.003 µM, first compound 3.16 µM): 3.53%
viability, T/C (second compound 0.003 µM, first compound 10 µM): 3.37%
viability, T/C (second compound 0.00949 µM, first compound 0.0316 µM): 5.03%
viability, T/C (second compound 0.00949 µM, first compound 0.1 µM): 3.43%
viability, T/C (second compound 0.00949 µM, first compound 0.316 µM): 3.46%
viability, T/C (second compound 0.00949 µM, first compound 1 µM): 2.91%
viability, T/C (second compound 0.00949 µM, first compound 3.16 µM): 1.87%
viability, T/C (second compound 0.00949 µM, first compound 10 µM): 1.74%
viability, T/C (second compound 0.03 µM, first compound 0.0316 µM): 3.07%
viability, T/C (second compound 0.03 µM, first compound 0.1 µM): 2.58%
viability, T/C (second compound 0.03 µM, first compound 0.316 µM): 1.57%
viability, T/C (second compound 0.03 µM, first compound 1 µM): 1.37%
viability, T/C (second compound 0.03 µM, first compound 3.16 µM): 1.64%
viability, T/C (second compound 0.03 µM, first compound 10 µM): 1.25%
viability, T/C (second compound 0.0949 µM, first compound 0.0316 µM): 2.35%
viability, T/C (second compound 0.0949 µM, first compound 0.1 µM): 2.02%
viability, T/C (second compound 0.0949 µM, first compound 0.316 µM): 1.42%
viability, T/C (second compound 0.0949 µM, first compound 1 µM): 1.29%
viability, T/C (second compound 0.0949 µM, first compound 3.16 µM): 1.01%
viability, T/C (second compound 0.0949 µM, first compound 10 µM): 0.89%
viability, T/C (second compound 0.3 µM, first compound 0.0316 µM): 2.27%
viability, T/C (second compound 0.3 µM, first compound 0.1 µM): 1.33%
viability, T/C (second compound 0.3 µM, first compound 0.316 µM): 1.26%
viability, T/C (second compound 0.3 µM, first compound 1 µM): 1.33%
viability, T/C (second compound 0.3 µM, first compound 3.16 µM): 1.18%
viability, T/C (second compound 0.3 µM, first compound 10 µM): 0.92%

IC50 (second compound 0.00316 µM): < 0.949 nM
IC50 (second compound 0.01 µM): < 0.949 nM
IC50 (second compound 0.0316 µM): < 0.949 nM
IC50 (second compound 0.1 µM): < 0.949 nM
IC50 (second compound 0.316 µM): < 0.949 nM
IC50 (second compound 1 µM): < 0.949 nM
Compound: CC1(C)CCC(Nc2ncc(C(F)(F)F)c(-c3c[nH]c4c(P(C)(C)=O)c(C#N)ccc34)n2)CN1 (stereo unspecified) + C=CC(=O)N1CCN(c2nc(OCC3CCCN3C)nc3c(F)c(-c4nc(N)cc(C)c4C(F)(F)F)c(Cl)cc23)C(C)C1
viability, T/C [1]: 12.2%
viability, T/C [2]: 11.3%
viability, T/C [3]: 11.2%
viability, T/C [4]: 13.6%
viability, T/C [5]: 12.2%
viability, T/C [6]: 11.8%
viability, T/C [7]: 11.9%
viability, T/C [8]: 10.2%
viability, T/C [9]: 10.1%
viability, T/C [10]: 10.1%
viability, T/C [11]: 13%
viability, T/C [12]: 12.4%
viability, T/C [13]: 9.75%
viability, T/C [14]: 9.55%
viability, T/C [15]: 10.2%
viability, T/C [16]: 11.2%
viability, T/C [17]: 10.7%
viability, T/C [18]: 10.8%
viability, T/C [19]: 10.9%
viability, T/C [20]: 9.77%
viability, T/C [21]: 10.7%
viability, T/C [22]: 10.9%
viability, T/C [23]: 11.5%
viability, T/C [24]: 10.2%
viability, T/C [25]: 10%
viability, T/C [26]: 9.73%
viability, T/C [27]: 10.6%
viability, T/C [28]: 10.2%
viability, T/C [29]: 12.2%
viability, T/C [30]: 11.4%
viability, T/C [31]: 10.2%
viability, T/C [32]: 11%
viability, T/C [33]: 10.4%
viability, T/C [34]: 11.1%
viability, T/C [35]: 12.4%
viability, T/C [36]: 12.3%

IC50 (second compound 0.00316 µM): < 0.949 nM
IC50 (second compound 0.01 µM): < 0.949 nM
IC50 (second compound 0.0316 µM): < 0.949 nM
IC50 (second compound 0.1 µM): < 0.949 nM
IC50 (second compound 0.316 µM): < 0.949 nM
IC50 (second compound 1 µM): < 0.949 nM
Compound: CCc1c2c(nc3ccc(O)cc13)-c1cc3c(c(=O)n1C2)COC(=O)[C@]3(O)CC + C=CC(=O)N1CCN(c2nc(OCC3CCCN3C)nc3c(F)c(-c4nc(N)cc(C)c4C(F)(F)F)c(Cl)cc23)C(C)C1
viability, T/C [1]: 17.1%
viability, T/C [2]: 14.7%
viability, T/C [3]: 15%
viability, T/C [4]: 12.2%
viability, T/C [5]: 7.62%
viability, T/C [6]: 4.2%
viability, T/C [7]: 18%
viability, T/C [8]: 13.9%
viability, T/C [9]: 12.2%
viability, T/C [10]: 10.3%
viability, T/C [11]: 6.26%
viability, T/C [12]: 3.82%
viability, T/C [13]: 14.9%
viability, T/C [14]: 11.9%
viability, T/C [15]: 14%
viability, T/C [16]: 8.57%
viability, T/C [17]: 6.15%
viability, T/C [18]: 3.69%
viability, T/C [19]: 13.6%
viability, T/C [20]: 12.4%
viability, T/C [21]: 9.96%
viability, T/C [22]: 9.55%
viability, T/C [23]: 6.17%
viability, T/C [24]: 2.99%
viability, T/C [25]: 12.7%
viability, T/C [26]: 12.2%
viability, T/C [27]: 11.6%
viability, T/C [28]: 9.06%
viability, T/C [29]: 6.73%
viability, T/C [30]: 3.59%
viability, T/C [31]: 13.1%
viability, T/C [32]: 13.5%
viability, T/C [33]: 12.9%
viability, T/C [34]: 9.98%
viability, T/C [35]: 8.33%
viability, T/C [36]: 4.38%
